{"source": "patent US20080221021A1", "about": "“Novel Corticotropin-Releasing Factor Receptor 1 (Crfr1) Agonist” (Max-Planck-Gesellschaft Zur Forderung Der, priority 2004, published 2008)", "key": {"CRFR1": {"test_system": "CRFR1", "conditions": "cited from earlier work"}, "rCRFR1 [1]": {"target": "T1, rCRFR1 (Rattus norvegicus, UniProt P35353)", "T1 construct": "expressed in transfected cells", "T1 sequence (P35353 24-415)": "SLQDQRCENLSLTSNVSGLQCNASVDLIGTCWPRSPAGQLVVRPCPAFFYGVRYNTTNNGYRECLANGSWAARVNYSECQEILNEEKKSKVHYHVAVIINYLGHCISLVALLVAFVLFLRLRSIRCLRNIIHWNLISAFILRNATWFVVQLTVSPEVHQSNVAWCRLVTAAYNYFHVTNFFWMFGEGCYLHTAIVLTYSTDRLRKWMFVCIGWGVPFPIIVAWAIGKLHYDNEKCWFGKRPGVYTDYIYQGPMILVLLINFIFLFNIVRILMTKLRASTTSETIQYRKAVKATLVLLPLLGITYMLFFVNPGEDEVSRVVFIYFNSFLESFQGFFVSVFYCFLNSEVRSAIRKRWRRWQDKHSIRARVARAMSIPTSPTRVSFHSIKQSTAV", "assay": "Competition binding scintillation proximity assay, rCRFR1 membranes", "conditions": "for selectivity for CRFR1: CRFR1 vs CRFR2, in words", "method": "(§1) Crude membrane fractions were prepared from human embryonic kidney (HEK) 293 cells stably expressing either cloned rat CRFR1α(rCRFR1) or mouse CRFR2β (mCRFR2β) as described (20). Rat CRFBP (rCRFBP) was produced in HEK 293 cells stably transfected with cDNA coding for rCRFBP C-terminally fused with a His6 sequence as described (36). The scintillation proximity assays (SPA) for binding analysis of CRFR and CRFBP have been already described in detail (21, 22). For competition binding assays of rCRFR1 and rCRFBP, [^125I-Tyr^0]h/rCRF was used as radiolabeled peptide, whereas [^125I-Tyr^0]Svg was employed for mCRFR2β."}, "rCRFR1 [2]": {"target": "T1, rCRFR1", "assay": "Agonist-induced intracellular cAMP accumulation in HEK 293 cells producing rCRFR1", "format": "cell-based", "conditions": "ratio of biological potencies (cAMP)", "method": "The biological potency of cortagine and OCRF was evaluated by the determination of the EC50 values for agonist-induced intracellular accumulation of cAMP in HEK 293 cells producing either rCRFR1 or mCRFR2β.\nThe HEK 293 cells were plated into 24 well cell culture plates and stimulated as described (21) using increasing concentrations of the agonists under investigation. Intracellular cAMP was measured with the Biotrak™ cAMP [^125I] SPA system (Amersham Pharmacia Biotech) according to the manufacturer's product manual."}, "[3]": {"assay": "Maximum solubility in aCSF by amino acid analysis", "format": "physicochemical", "conditions": "aCSF, pH 7.4; read-out: maximal solubility cmax", "method": "After dissolving the peptides in artificial cerebrospinal fluid (aCSF; 124 mM NaCl, 26.4 mM NaHCO3, 10 mM glucose, 3.3 mM KCl, 2.5 mM CaCl2 , 2.4 mM MgSO4 , 1.2 mM KH2PO4) at pH=7.4, the maximum solubility cmax was determined by amino acid analysis as described (21). The isoelectric point of the peptides was determined by isoelectric focusing (IEF) as described (21) with a Bio-Rad IEF cell system using Bio-Rad IEF strips in the pH range 3-10."}, "[4]": {"format": "physicochemical", "method": "A high solubility under physiological conditions is a crucial prerequisite especially for compounds to be injected into the rodent brain. […] Both peptides were soluble in a concentration range of up to 1000 μM (FIG. 6), so that there was no limitation in view of the agonist doses typically used in behavioral experiments. […] Consequently, solutions of cortagine to be used in the pharmacological assays were prepared in phosphate buffered saline (PBS; pH=7.4)."}, "mCRFR2β": {"target": "T2, mCRFR2β (Mus musculus, UniProt Q60748)", "T2 construct": "expressed in transfected cells", "T2 sequence (Q60748 1-431 isoform Q60748-2)": "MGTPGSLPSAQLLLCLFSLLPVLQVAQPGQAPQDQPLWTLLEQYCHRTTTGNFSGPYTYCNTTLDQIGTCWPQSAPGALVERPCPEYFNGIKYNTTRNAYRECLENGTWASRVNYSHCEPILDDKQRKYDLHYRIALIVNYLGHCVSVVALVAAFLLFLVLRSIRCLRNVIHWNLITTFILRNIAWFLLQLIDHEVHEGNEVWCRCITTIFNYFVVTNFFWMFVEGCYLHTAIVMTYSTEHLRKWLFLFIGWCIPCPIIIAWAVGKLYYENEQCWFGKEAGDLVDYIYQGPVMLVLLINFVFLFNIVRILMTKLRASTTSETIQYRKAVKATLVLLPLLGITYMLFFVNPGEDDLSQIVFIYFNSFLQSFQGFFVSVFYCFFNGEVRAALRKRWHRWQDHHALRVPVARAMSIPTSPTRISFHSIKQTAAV", "assay": "Competition binding scintillation proximity assay, mCRFR2β membranes", "conditions": "for affinity for CRFR2: binding analysis, in words", "method": "as §1"}, "rCRFBP": {"target": "T3, rCRFBP (Rattus norvegicus, UniProt P24388)", "T3 construct": "His6 (C); made in house; host or cells: HEK 293 cells, stably transfected", "T3 sequence (P24388 25-322)": "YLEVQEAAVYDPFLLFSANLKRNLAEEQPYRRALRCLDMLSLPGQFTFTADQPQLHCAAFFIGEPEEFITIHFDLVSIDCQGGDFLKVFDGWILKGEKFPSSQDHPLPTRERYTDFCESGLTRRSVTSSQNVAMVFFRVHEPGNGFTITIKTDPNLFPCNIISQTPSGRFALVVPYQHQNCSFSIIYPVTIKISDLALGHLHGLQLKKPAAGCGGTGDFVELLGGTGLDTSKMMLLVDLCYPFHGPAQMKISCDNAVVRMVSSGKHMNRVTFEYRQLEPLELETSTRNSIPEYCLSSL", "assay": "Competition binding scintillation proximity assay, rCRFBP", "conditions": "binding analysis, in words", "method": "as §1"}, "C57BL/6J mice": {"test_system": "C57BL/6J mice", "assay": "Elevated plus-maze test, intraseptal (i.s.) injection", "format": "in vivo, mouse", "conditions": "400 ng aSvg-30 i.s. 15 min before oCRF", "method": "Nine-week old male C57BL/6J (Centre D'Elevage Janvier, Sultzfeld, France) were individually housed in macrolon cages according to the recommendations of the Society for Laboratory Animal Science (Germany). All experiments were carried out in accordance with the European Council Directive (86/609/EEC) with the permission of the Animal Protection Law enforced by the District Government of Braunschweig, State of Lower Saxony, Germany, which is in full agreement with the APA ethical guidelines. All efforts were made to minimize animal suffering. The number of mice per group was 9-11.\nAll peptides were dissolved in aCSF except for the CRFR2-selective antagonist antisauvagine-30 (aSvg-30) (20) that was initially dissolved in 10 mM aqueous acetic acid and diluted with the same volume of two-fold concentrated aCSF. The final pH of the peptide solutions was 7.4. The exact peptide concentration of the injection solutions was determined by amino acid analysis with a Beckman HPLC analyzer system 6300. […]\nThe elevated plus-maze (EPM) behavior of C57BL/6J mice cannulated in the lateral ventricles or lateral intermediate septal area (23) was investigated 30 min after injection of the CRFR1 agonist under investigation for 5 min in the EPM test (24). […] The behavior of the mice was recorded by a video camera connected to a PC and analyzed by the Technical & Scientific Equipment software VIDEOMOT 2. […]"}}, "note": "Entries after “also recorded” stand apart in the source; their conditions may differ. Where no end group is shown, it is not given here."}
{"molecule": "CCCCN(CC)c1nc(C)nc2c1c(C)cn2-c1c(C)cc(C)cc1C", "note": "[CP-154,526]", "values": [{"measurement": "locomotion in the EPM test", "setting": "CRFR1", "result": "nonspecific increase in locomotion"}]}
{"molecule": "CC[C@H](C)[C@H](NC(=O)[C@@H](NC(=O)[C@H](CC(=O)O)NC(=O)[C@H](CC(C)C)NC(=O)[C@H](CC(C)C)NC(=O)[C@H](CC(C)C)NC(=O)[C@H](CCCNC(=N)N)NC(=O)[C@H](CC(N)=O)NC(=O)[C@H](CC(N)=O)NC(=O)[C@H](C)NC(=O)[C@H](C)NC(=O)[C@H](CCC(N)=O)NC(=O)[C@H](CCC(N)=O)NC(=O)[C@H](CCCCN)NC(=O)[C@H](CCC(=O)O)NC(=O)[C@H](CCCCN)NC(=O)[C@H](CCC(=O)O)NC(=O)[C@H](CCC(N)=O)NC(=O)[C@H](CCCCN)NC(=O)[C@H](CCC(=O)O)NC(=O)[C@@H](NC(=O)[C@H](CCC(=O)O)NC(=O)[C@@H](NC(=O)[C@H](CCSC)NC(=O)[C@H](CCCCN)NC(=O)[C@H](CCCNC(=N)N)NC(=O)[C@H](CC(C)C)NC(=O)[C@H](CC(C)C)NC(=O)[C@H](CCC(=O)O)NC(=O)[C@H](CC(C)C)NC(=O)[C@H](CO)NC(=O)[C@H](CC(C)C)NC(=O)[C@H](CC(=O)O)NC(=O)[C@@H](NC(=O)[C@H](CO)NC(=O)[C@@H](NC(=O)[C@@H]1CCCN1C(=O)[C@@H]1CCCN1C(=O)CNC(=O)[C@@H]1CCC(=O)N1)[C@@H](C)CC)[C@@H](C)CC)[C@@H](C)CC)[C@@H](C)CC)[C@@H](C)O)C(N)=O", "note": "[Svg, sauvagine, reference compound]", "values": [{"measurement": "selectivity for CRFR1", "setting": "rCRFR1 [1]; binding analysis", "result": "non-selective"}]}
{"molecule": "CC[C@H](C)[C@H](NC(=O)[C@H](CC(=O)O)NC(=O)[C@H](CC(C)C)NC(=O)[C@H](CC(C)C)NC(=O)[C@H](CCCCN)NC(=O)[C@H](CCCNC(=N)N)NC(=O)[C@H](CC(N)=O)NC(=O)[C@H](CO)NC(=O)[C@H](Cc1c[nH]cn1)NC(=O)[C@H](C)NC(=O)[C@H](CCC(N)=O)NC(=O)[C@H](CCC(N)=O)NC(=O)[C@H](C)NC(=O)[C@H](CC(C)C)NC(=O)[C@H](CCC(N)=O)NC(=O)[C@H](CC(=O)O)NC(=O)[C@H](C)NC(=O)[C@H](CCCCN)NC(=O)[C@@H](NC(=O)[C@H](CCSC)NC(=O)[C@H](CCC(=O)O)NC(=O)[C@H](CC(C)C)NC(=O)[C@@H](NC(=O)[C@H](CCC(=O)O)NC(=O)[C@H](CCCNC(=N)N)NC(=O)[C@H](CC(C)C)NC(=O)[C@H](CC(C)C)NC(=O)[C@H](Cc1c[nH]cn1)NC(=O)[C@H](Cc1ccccc1)NC(=O)[C@@H](NC(=O)[C@H](CC(C)C)NC(=O)[C@H](CC(=O)O)NC(=O)[C@H](CC(C)C)NC(=O)[C@H](CO)NC(=O)[C@@H](NC(=O)[C@@H]1CCCN1C(=O)[C@@H]1CCCN1C(=O)[C@H](CCC(=O)O)NC(=O)[C@H](CCC(N)=O)NC(=O)[C@@H](N)CO)[C@@H](C)CC)[C@@H](C)O)C(C)C)[C@@H](C)O)C(=O)N[C@@H](C)C(N)=O", "note": "[oCRF, ovine CRF, reference compound]", "values": [{"measurement": "CRFR1-selectivity over CRFR2β, IC50(mCRFR2)/IC50(rCRFR1)", "setting": "rCRFR1 [1]; ratio of binding affinities", "result": 89}, {"measurement": "CRFR1-selectivity over CRFR2β, EC50(mCRFR2)/EC50(rCRFR1)", "setting": "rCRFR1 [2]", "result": 19}, {"measurement": "solubility", "setting": "[3]", "result": "≤ 1000", "unit": "µM"}, {"measurement": "solubility in 10 mM aqueous acetic acid", "setting": "[4]", "result": "soluble in 10 mM aqueous acetic acid"}]}
{"molecule": "[Ala^40] [Svg^1-12]x[h/rCRF^14-30]x[Svg^30-40] [compound 8]", "values": [{"measurement": "selectivity for CRFR1", "setting": "rCRFR1 [1]; binding analysis", "result": "highly selective for CRFR1"}, {"measurement": "change in affinity to CRFR1 in comparison to parent peptide", "setting": "rCRFR1 [1]; compound 8 vs compound 6, compound 9 vs compound 8, Nle20 analog vs compound 9", "result": "more than five-fold increase"}, {"measurement": "change in affinity for CRFR2 in comparison to parent peptide", "setting": "mCRFR2β; compound 8 vs compound 6, compound 9 vs compound 8", "result": "only a slight increase"}, {"measurement": "affinity to CRFBP", "setting": "rCRFBP", "result": "high affinity"}]}
{"molecule": "[Ala^41]h/rCRF (SEEPPISLDLTFHLLREVLEMARAEQLAQQAHSNRKLMEIA; ends and bridges not checked; UniProt P06850 154-194, looked up, variant I41A) [h/rCRF analog with Ala in position 41]", "values": [{"measurement": "selectivity for CRFR1 in comparison to h/rCRF", "setting": "rCRFR1 [1]; binding analysis", "result": "increase in CRFR1 selectivity by a factor of three"}]}
{"molecule": "[Svg^1-12 ]x[h/rCRF^14-30]x[Svg^30-40] (QGPPISIDLSLELLREVLEMARAEQLAQQAANNRLLLDTI; not fully specified (residue 1); ends and bridges not checked) [compound 6]", "values": [{"measurement": "selectivity for CRFR1", "setting": "rCRFR1 [1]; binding analysis", "result": "selective for CRFR1"}, {"measurement": "affinity for CRFR2", "setting": "mCRFR2β", "result": "low affinity to CRFR2"}]}
{"molecule": "[Svg^1-29]x[h/rCRF^31-41] (QGPPISIDLSLELLRKMIEIEKQEKEKQQAHSNRKLMEII; ends and bridges not checked) [compound 7, chimeric peptide of h/rCRF and Svg domains]", "values": [{"measurement": "selectivity for CRFR1", "setting": "rCRFR1 [1]; binding analysis", "result": "not"}]}
{"molecule": "[h/rCRF^1-13]x[Svg^13-29]x[h/rCRF^31-41] (SEEPPISLDLTFHLLRKMIEIEKQEKEKQQAHSNRKLMEII; ends and bridges not checked) [compound 4, chimeric peptide of h/rCRF and Svg domains]", "values": [{"measurement": "selectivity for CRFR1", "setting": "rCRFR1 [1]; binding analysis", "result": "not"}, {"measurement": "affinity for CRFR2", "setting": "mCRFR2β", "result": "not"}]}
{"molecule": "[h/rCRF^1-30]x[Svg^30-40] (SEEPPISLDLTFHLLREVLEMARAEQLAQQAANNRLLLDTI; ends and bridges not checked) [compound 5, chimeric peptide of h/rCRF and Svg domains]", "values": [{"measurement": "selectivity for CRFR1", "setting": "rCRFR1 [1]; binding analysis", "result": "clear selectivity for CRFR1"}, {"measurement": "affinity for CRFR2", "setting": "mCRFR2β", "result": "low affinity"}]}
{"molecule": "anti-sauvagine-30 [aSvg-30]", "values": [{"measurement": "antagonism of anxiogenic effects of 100 ng oCRF", "setting": "C57BL/6J mice", "result": "completely prevented; also recorded: fully antagonized"}]}
